Data set [1] relates to HEK293 cells expressing ΔCR PrP. Description: cells. The data set is classed as cell-based. Details: Emax: dose or concentration left out as unconfirmed. The note with it: for Emax at 1 µM / Emax: HEK293, 48 h, read-out: % RMAX: maximum rescuing effect, expressed as percentage of the effect of SM3(LD24) at the same concentration; for pIC50: HEK293, read-out: IC50 (rescuing dose at 50%).

The test system of another data set is cDC2. The data set is classed as cell-based, mouse.
Another data set has as its system naive HEK293 cells. Description: Intrinsic toxicity in naive HEK293 cells (MTT). In kind it is cell-based. The note with it: 8-point dose-response curve, 48 h. An excerpt:
FIG. 3. Dose-response analysis of selected compounds. (A) Chemical structures of the selected molecules are shown in panel. (B) A dose-response analysis using the DBCA was employed to evaluate the anti-ΔCR PrP effects of the different molecules. The graphs show a quantification of the dose-dependent, rescuing effect of each molecule. Average values were obtained from a minimum of 3 independent experiments (n≥3), and expressed as a percentage of cell viability in untreated cells. Data were fitted to a sigmoidal function using a 4-parameter logistic (4PL) non-linear regression model, allowing the estimation of the half-maximal inhibitory concentration (IC50). (C) The intrinsic toxicity of each compound was evaluated in naive HEK293 cells, exposed to each molecule/concentration for 48 h at 37° C. Cytotoxicity was evaluated by MTT. Average values were obtained from a minimum of 3 independent experiments (n≥3), and expressed as a percentage of cell viability in untreated cells. Data were fitted to an inverse sigmoidal function using a 4PL non-linear regression model, allowing the estimation of the half-maximal toxicity dose (LD50).
The DBCA was performed as described previously^24, with minor modifications. Briefly, HEK293 cells expressing ΔCR PrP were cultured at ˜60% confluence in 24-well plates on day 1. On day 2, cells were treated with 500 μg/mL of Zeocinfor. Medium (containing fresh Zeocin and/or compound or vehicle) was replaced every 24 hr. On day 5, cell medium was removed and cells were incubated with 1 mg/mL of 3-(4,5-dimethylthiazol-2-yl)-2,5-diphenyltetrazolium bromide (MTT, Sigma Aldrich, St. Louis, MO) in PBS for 30 min at 37° C. MTT was carefully removed, and cells were re-suspended in 500 μL of DMSO. Values for each well were obtained by measuring at 570 nm, using a plate spectrophotometer (Biotek).

The test system of a further data set is Fyn kinase. The data set is classed as cell-based, mouse.
In data set [2] the test system is primary hippocampal neurons. The data set is classed as cell-based, mouse.
The target of data set [3] is T1, full-length human recombinant PrPC (Homo sapiens, UniProt P04156). In kind it is binding. The note with it: 0.1-1000 μM, highest concentration 1 mM.
Data set [4] relates to PrPC. The note with it: HEK293 WT PrPC, 48 hours.
Data set [5] has as its system PrPC. In kind it is cell-based, mouse. The note with it: especially in DC2.
The next data set relates to DC2. In kind it is cell-based, mouse.
For data set [6] the following is noted: mouse, in vivo.
In the next data set the test system is FXR. The data set is classed as cell-based, mouse.
The nature of a further data set: in vitro. The note with it: rat, microsomes.
The target of data set [7] is T1, full-length human recombinant PrPC. The note with it: cited from earlier work.
The next data set concerns M1000 prion strain. On the set-up: species or system mouse. The note with it: slices treated with M1000 prion lysate.

For orientation: pIC50 means the negative decadic logarithm of the IC50, by convention in mol/L. Broadly, the half-life is how long it takes for the measured level to halve.

pIC50: −log10 of the molar value. Where two headings read alike, the source gives them in different places.

On to `O=C(CN1c2ccc(C(F)(F)F)cc2-c2ccccc2S1(=O)=O)NC(CCO)CCO` [SM887, 2-[5,5-dioxido-9-(trifluoromethyl)-6H-dibenzo[c,e][1,2]thiazin-6-yl]-N-[3-hydroxy-1-(2-hydroxyethyl)propyl]acetamide], for which the Emax at 1 µM in [1] is around 50%. Further, in the data set on cDC2, the “antigen-specific CD4+ T cell proliferation after cDC2 treatment” value is “significantly affected”.

As for `O=C(CN1c2ccc(C(F)(F)F)cc2-c2ccccc2S1(=O)=O)NC1CCCCC1` [SM231, N-cyclohexyl-2-[5,5-dioxido-9-(trifluoromethyl)-6H-dibenzo[c,e][1,2]thiazin-6-yl]acetamide], in data set [1], the Emax turned out to be 140% and the pIC50 was 6.85. In the data set on naive HEK293 cells, the “LD50 (lethal dose at 50%)” value is 22.4 µM. Moreover, the “effect on Aβ-induced Fyn phosphorylation” value in the data set on Fyn kinase is recorded as “completely abrogated Aβ effects”. For the same molecule, in data set [2], the “effect on Aβ-induced decrease of post-synaptic markers (GluN2A, GluN2B, GluA1, GluA2, PSD-95)” value was “significantly rescued the levels of all the post-synaptic markers”. In data set [3], the “binding to recombinant PrPC by DMR” value is listed as “no interaction was observed”. For the same molecule, in the data set on PrPC [4], the “total PrPC expression” value is listed as “no difference in PrPC expression was found”. Besides, the “PrPC level in DC1 and DC2” value in the data set on PrPC [5] is “slightly increases”. Further, the “expansion of FoxP3+ LAP+ Treg cells by treated DC2” value with DC2 was “favor the expansion of T cells expressing Treg cell markers FoxP3 and LAP”. Further, in [6], the “EAE clinical score / disease severity” value is “reduced disease as compared to control mice”; the “secretion of IL-17A and GM-CSF by CD4+ T cells from cervical lymph nodes re-stimulated with MOG” value was “reduced secretion of inflammatory cytokines”; the “white matter demyelination and inflammatory infiltrates” value is on record as “reduced”. Further, the “FXR transcriptional activity (FXR, Nr0b2 mRNA)” value in the data set with FXR was “promoted significant FXR transcriptional activity”. The half-life in the data set “in vitro” was found to be 25 min.

In the case of `O=C(CN1c2ccc(Br)cc2-c2ccccc2S1(=O)=O)NC1CCCCC1` [SM3, 2-(9-Bromo-5,5-dioxido-6H-dibenzo[c,e][1,2]thiazin-6-yl)-N-cyclohexylacetamide, reference compound], in [1], the Emax came out at 100% and the pIC50 was 5.96. Also, in the data set on naive HEK293 cells, the “LD50 (lethal dose at 50%)” value is above 100 µM.

On to `O=C(CN1c2ccc(C(F)(F)F)cc2-c2ccc(F)cc2S1(=O)=O)NN1CCOCC1` [SM881, 2-[3-Fluoro-5,5-dioxido-9-(trifluoromethyl)-6H-dibenzo[c,e][1,2]thiazin-6-yl]-N-morpholin-4-ylacetamide], for which, in data set [1], the Emax was determined as 150% and the pIC50 was 7.49. Besides, the “LD50 (lethal dose at 50%)” value in the data set with naive HEK293 cells is above 100 µM.

In the case of Fe(III)-TMPyP [reference compound], the “effect on Aβ-induced Fyn phosphorylation” value with Fyn kinase was “prevented”. In [2], the “effect on Aβ-induced decrease of post-synaptic markers (GluN2A, GluN2B, GluA1, GluA2, PSD-95)” value is recorded as “rescued”. Also, in [6], the “EAE clinical score / disease severity” value was “ameliorate EAE severity”. Moreover, the “affinity for PrPC, previously reported” value in [7] is listed as “high”.

With `CCC(CN(C)C)NC(=O)CN1c2ccc(C(F)(F)F)cc2-c2ccc(F)cc2S1(=O)=O` (stereo not drawn) [SM889, N-{1-[(dimethylamino)methyl]propyl}-2-[3-fluoro-5,5-dioxido-9-(trifluoromethyl)-6H-dibenzo[c,e][1,2]thiazin-6-yl]acetamide], the Emax at 1 µM in data set [1] is around 50%. For the same molecule, the “antigen-specific CD4+ T cell proliferation after cDC2 treatment” value in the data set with cDC2 was “suppress antigen-specific CD4+ T cell proliferation”.

On to `O=C(CN1c2ccc(C(F)(F)F)cc2-c2ccc(F)cc2S1(=O)=O)NC(CCO)CCO` [SM888, 2-[3-Fluoro-5,5-dioxido-9-(trifluoromethyl)-6H-dibenzo[c,e][1,2]thiazin-6-yl]-N-[3-hydroxy-1-(2-hydroxyethyl)propyl]acetamide], for which the Emax at 1 µM in [1] was around 50%. In addition, in the data set with cDC2, the “antigen-specific CD4+ T cell proliferation after cDC2 treatment” value is listed as “suppress antigen-specific CD4+ T cell proliferation”.

Consider `O=C(CN1c2cc(Br)ccc2-c2ccccc2S1(=O)=O)NC1CCCCC1` [SM228, 2-(8-Bromo-5,5-dioxido-6H-dibenzo[c,e][1,2]thiazin-6-yl)-N-cyclohexylacetamide], for which, in [1], the Emax was 123% and the pIC50 was 6.68. The “LD50 (lethal dose at 50%)” value with naive HEK293 cells came to 37.46 µM.

Take `O=C(CN1c2cccc(Br)c2-c2ccccc2S1(=O)=O)NC1CCCCC1` [SM229, 2-(10-bromo-5,5-dioxido-6H-dibenzo[c,e][1,2]thiazin-6-yl)-N-cyclohexylacetamide]: in data set [1], the Emax was 121% and the pIC50 was 6.60. In the data set with naive HEK293 cells, the “LD50 (lethal dose at 50%)” value is 28.21 µM.

`O=C(CN1c2ccc(C(F)(F)F)cc2-c2ccc(F)cc2S1(=O)=O)NC1CCCCC1` [SM882, N-cyclohexyl-2-(3-fluoro-5,5-dioxido-9-(trifluoromethyl)-6H-dibenzo[c,e][1,2]thiazin-6-yl)acetamide]: in [1], the Emax worked out at 139% and the pIC50 is 7.36. The “LD50 (lethal dose at 50%)” value in the data set on naive HEK293 cells is above 100 µM.

On to `O=C(CN1c2ccc(C(F)(F)F)cc2-c2ccc(F)cc2S1(=O)=O)NC1CCOCC1` [SM885, 2-[3-Fluoro-5,5-dioxido-9-(trifluoromethyl)-6H-dibenzo[c,e][1,2]thiazin-6-yl]-N-(tetrahydro-2H-pyran-4-yl)acetamide], for which, in [1], the Emax worked out at 123% and the negative-log IC50 (pIC50) was 7.28. Moreover, in the data set with naive HEK293 cells, the “LD50 (lethal dose at 50%)” value was above 100 µM.

In the case of `CCOc1ccc2c(c1)S(=O)(=O)N(CC(=O)NC1CCCCC1)c1ccc(C(F)(F)F)cc1-2` [SM883, N-cyclohexyl-2-(3-ethoxy-5,5-dioxido-9-(trifluoromethyl)-6H-dibenzo[c,e][1,2]thiazin-6-yl)acetamide], in [1], the Emax was determined as 166% and the pIC50 is 7.85. Also, the “LD50 (lethal dose at 50%)” value with naive HEK293 cells is above 100 µM.

In the case of `CCC(CC)NC(=O)CN1c2ccc(C(F)(F)F)cc2-c2ccc(F)cc2S1(=O)=O` [SM884, N-(1-Ethylpropyl)-2-[3-fluoro-5,5-dioxido-9-(trifluoromethyl)-6H-dibenzo[c,e][1,2]thiazin-6-yl]acetamide], in data set [1], the Emax stood at 211% and the negative logarithm of the IC50 (pIC50) is 7.74. For the same molecule, the “LD50 (lethal dose at 50%)” value with naive HEK293 cells was above 100 µM. For the same molecule, the “rescue of long-term potentiation (LTP)” value with M1000 prion strain (0.03 μM) came out at 71%. In the data set on M1000 prion strain (0.1 μM), the “rescue of long-term potentiation (LTP)” value amounted to 34%.

For the molecule `O=C1C(N2c3ccc(Br)cc3-c3ccccc3S2(=O)=O)CCN1C1CCCCC1` (racemic) [SM11, (R,S)-3-(9-Bromo-5,5-dioxido-6H-dibenzo[c,e][1,2]thiazin-6-yl)-1-cyclohexylpyrrolidin-2-one], the Emax at 1 µM in data set [1] came to 43.9%.

Values taken from patent US20240376092A1 (priority 2021, published 2024).
